The NIST ThermoML archive (doi:10.1021/je060343y)

Tests used:
[1] = φn = volume fraction of the nth substance listed; conditions: 101 kPa, Liquid
[2] = 101 kPa, Liquid

CNC(C)=O [N-methylacetamide] + CCOC(=O)CC#N
[1], φ1 = 1
Conditions	mass density [kg/m3]	speed of sound [m/s]
303.15 K	951.3	1367
308.15 K	945.9	1362
313.15 K	943.6	1334
318.15 K	939.9	1319

CCOC(=O)CCl [ethyl chloroethanoate]
[2]
Conditions	mass density [kg/m3]	speed of sound [m/s]
303.15 K	1139.29	1229
308.15 K	1132.5	1212
313.15 K	1125.9	1198
318.15 K	1119.9	1177

CCOC(=O)CC#N [ethyl cyanoacetate] + CNC(C)=O
[1]
Conditions	mass density [kg/m3]	speed of sound [m/s]
303.15 K, φ2 = 0	1051.4	1397
303.15 K, φ2 = 0.0529	1048.11	1396
303.15 K, φ2 = 0.186	1036.06	1391
303.15 K, φ2 = 0.2745	1027.82	1389
303.15 K, φ2 = 0.3672	1018.95	1386
303.15 K, φ2 = 0.4502	1010.93	1384
303.15 K, φ2 = 0.5435	1001.23	1380
303.15 K, φ2 = 0.5664	998.75	1379
303.15 K, φ2 = 0.7307	980.97	1375
303.15 K, φ2 = 0.8795	964.97	1370
308.15 K, φ2 = 0	1046.5	1385
308.15 K, φ2 = 0.0529	1041.91	1384
308.15 K, φ2 = 0.1862	1029.63	1380
308.15 K, φ2 = 0.2747	1021.42	1378
308.15 K, φ2 = 0.3675	1012.63	1375
308.15 K, φ2 = 0.4504	1004.44	1373
308.15 K, φ2 = 0.5438	994.68	1371
308.15 K, φ2 = 0.5666	992.26	1370
308.15 K, φ2 = 0.7309	974.66	1367
308.15 K, φ2 = 0.8796	958.76	1365
313.15 K, φ2 = 0	1040.8	1368
313.15 K, φ2 = 0.0528	1036.3	1366
313.15 K, φ2 = 0.1857	1024.28	1362
313.15 K, φ2 = 0.2741	1015.97	1359
313.15 K, φ2 = 0.3667	1007.36	1356
313.15 K, φ2 = 0.4497	999.41	1353
313.15 K, φ2 = 0.543	990.26	1349
313.15 K, φ2 = 0.5659	987.92	1348
313.15 K, φ2 = 0.7303	971.38	1343
313.15 K, φ2 = 0.8793	956.39	1337
318.15 K, φ2 = 0	1034.7	1359
318.15 K, φ2 = 0.0527	1030.52	1358
318.15 K, φ2 = 0.1854	1018.59	1356
318.15 K, φ2 = 0.2737	1010.48	1352
318.15 K, φ2 = 0.3663	1001.85	1348
318.15 K, φ2 = 0.4492	994.13	1345
318.15 K, φ2 = 0.5425	985.18	1341
318.15 K, φ2 = 0.5654	982.97	1340
318.15 K, φ2 = 0.7299	966.83	1332
318.15 K, φ2 = 0.8791	952.07	1324

CNC(C)=O [N-methylacetamide] + CCOC(=O)CCl
[1], φ1 = 1
Conditions	mass density [kg/m3]	speed of sound [m/s]
303.15 K	951.3	1367
308.15 K	945.9	1362
313.15 K	943.6	1334
318.15 K	939.9	1319

CNC(C)=O [N-methylacetamide]
[2]
Conditions	mass density [kg/m3]	speed of sound [m/s]
303.15 K	951.3	1367
308.15 K	945.9	1362
313.15 K	943.6	1334
318.15 K	939.9	1319

CCOC(C)=O [ethyl acetate]
[2]
Conditions	mass density [kg/m3]	speed of sound [m/s]
303.15 K	888.9	1119
308.15 K	882.6	1098
313.15 K	875.9	1081
318.15 K	869.6	1058

CCOC(=O)CCl [ethyl chloroethanoate] + CNC(C)=O
[1]
Conditions	mass density [kg/m3]	speed of sound [m/s]
303.15 K, φ2 = 0	1139.29	1229
303.15 K, φ2 = 0.0547	1128.33	1238
303.15 K, φ2 = 0.154	1110.27	1252
303.15 K, φ2 = 0.2473	1093.79	1265
303.15 K, φ2 = 0.2903	1085.92	1272
303.15 K, φ2 = 0.4356	1059.31	1293
303.15 K, φ2 = 0.5321	1041.12	1305
303.15 K, φ2 = 0.6203	1024.32	1317
303.15 K, φ2 = 0.7118	1006.88	1329
303.15 K, φ2 = 0.8656	977.31	1350
308.15 K, φ2 = 0	1132.5	1212
308.15 K, φ2 = 0.0547	1123.26	1221
308.15 K, φ2 = 0.154	1105.23	1235
308.15 K, φ2 = 0.2473	1088.2	1249
308.15 K, φ2 = 0.2902	1080.37	1256
308.15 K, φ2 = 0.4356	1053.83	1277
308.15 K, φ2 = 0.532	1036.02	1291
308.15 K, φ2 = 0.6202	1019.38	1304
308.15 K, φ2 = 0.7118	1002.05	1318
308.15 K, φ2 = 0.8656	972.28	1342
313.15 K, φ2 = 0	1125.9	1198
313.15 K, φ2 = 0.0545	1115.23	1207
313.15 K, φ2 = 0.1535	1098.23	1220
313.15 K, φ2 = 0.2466	1082.14	1233
313.15 K, φ2 = 0.2895	1074.53	1239
313.15 K, φ2 = 0.4347	1048.13	1259
313.15 K, φ2 = 0.5312	1030.46	1271
313.15 K, φ2 = 0.6194	1014.19	1283
313.15 K, φ2 = 0.7111	997.15	1296
313.15 K, φ2 = 0.8652	968.5	1317
318.15 K, φ2 = 0	1119.9	1177
318.15 K, φ2 = 0.0544	1109.19	1187
318.15 K, φ2 = 0.1533	1090.85	1202
318.15 K, φ2 = 0.2464	1073.98	1207
318.15 K, φ2 = 0.2892	1066.23	1212
318.15 K, φ2 = 0.4344	1040.02	1231
318.15 K, φ2 = 0.5308	1022.75	1244
318.15 K, φ2 = 0.6191	1007.06	1257
318.15 K, φ2 = 0.7108	990.68	1272
318.15 K, φ2 = 0.865	963.31	1296

CCOC(=O)CC#N [ethyl cyanoacetate]
[2]
Conditions	mass density [kg/m3]	speed of sound [m/s]
303.15 K	1051.4	1397
308.15 K	1046.5	1385
313.15 K	1040.8	1368
318.15 K	1034.7	1359

CNC(C)=O [N-methylacetamide] + CCOC(C)=O
[1]
Conditions	mass density [kg/m3]	speed of sound [m/s]
303.15 K, φ1 = 0.0538	893.87	1132
303.15 K, φ1 = 0.1843	903.06	1167
303.15 K, φ1 = 0.2972	910.76	1197
303.15 K, φ1 = 0.3991	917.49	1223
303.15 K, φ1 = 0.4982	923.67	1248
303.15 K, φ1 = 0.594	929.3	1271
303.15 K, φ1 = 0.6955	935.03	1295
303.15 K, φ1 = 0.7437	937.68	1306
303.15 K, φ1 = 0.9463	948.19	1354
303.15 K, φ1 = 1	951.3	1367
308.15 K, φ1 = 0.0537	887.58	1114
308.15 K, φ1 = 0.1841	896.86	1149
308.15 K, φ1 = 0.2969	904.58	1180
308.15 K, φ1 = 0.3988	911.43	1208
308.15 K, φ1 = 0.4979	917.94	1234
308.15 K, φ1 = 0.5937	923.93	1259
308.15 K, φ1 = 0.6952	930.02	1284
308.15 K, φ1 = 0.7434	932.86	1296
308.15 K, φ1 = 0.9488	943.96	1348
308.15 K, φ1 = 1	945.9	1362
313.15 K, φ1 = 0.0534	880.97	1097
313.15 K, φ1 = 0.1833	891.3	1132
313.15 K, φ1 = 0.2958	899.84	1161
313.15 K, φ1 = 0.3976	907.15	1188
313.15 K, φ1 = 0.4966	913.79	1214
313.15 K, φ1 = 0.5924	920.09	1238
313.15 K, φ1 = 0.6941	926.71	1263
313.15 K, φ1 = 0.7431	929.67	1274
313.15 K, φ1 = 0.946	941.22	1322
313.15 K, φ1 = 1	943.6	1334
318.15 K, φ1 = 0.0533	875.13	1074
318.15 K, φ1 = 0.1828	886.1	1113
318.15 K, φ1 = 0.2951	894.79	1144
318.15 K, φ1 = 0.3968	902.46	1172
318.15 K, φ1 = 0.4958	909.37	1198
318.15 K, φ1 = 0.5916	915.67	1223
318.15 K, φ1 = 0.6934	922.12	1249
318.15 K, φ1 = 0.7418	925.21	1261
318.15 K, φ1 = 0.9458	937.26	1309
318.15 K, φ1 = 1	939.9	1319

CCOC(C)=O [ethyl acetate] + CNC(C)=O
[1], φ2 = 0
Conditions	mass density [kg/m3]	speed of sound [m/s]
303.15 K	888.9	1119
308.15 K	882.6	1098
313.15 K	875.9	1081
318.15 K	869.6	1058
